Laboratory results: ChEMBL document CHEMBL4602737, “Structure-Guided Identification of DNMT3B Inhibitors” (ACS Med Chem Lett, 2020)

What was measured:
[1] = biological target: T1, DNA (cytosine-5)-methyltransferase 3B (Homo sapiens, UniProt Q9UBC3); assay: Inhibition of human recombinant DNMT3B expressed in baculovirus infected insect cells using CpG site containing internally quenched hairpin oligonucleotide DNA substrate and SAM incubated for 30 mins by kinetic fluorogenic assay
[2] = biological target: DNA (cytosine-5)-methyltransferase 1 (Homo sapiens, UniProt P26358); assay: Inhibition of human recombinant DNMT1 expressed in baculovirus infected insect cells using CpG site containing internally quenched hairpin oligonucleotide DNA substrate and SAM incubated for 30 mins by kinetic fluorogenic assay
[3] = biological target: T1, DNA (cytosine-5)-methyltransferase 3B; assay: Inhibition of human recombinant DNMT3B expressed in baculovirus infected insect cells by DRONE assay
[4] = Cytotoxicity in African green monkey Vero cells assessed as reduction in cell viability; format: cell-based; conditions: chlorocebus sabaeus
[5] = Toxicity in mouse; format: organism-based; conditions: in vivo

DNA (cytosine-5)-methyltransferase 1, sequence (P26358 whole entry): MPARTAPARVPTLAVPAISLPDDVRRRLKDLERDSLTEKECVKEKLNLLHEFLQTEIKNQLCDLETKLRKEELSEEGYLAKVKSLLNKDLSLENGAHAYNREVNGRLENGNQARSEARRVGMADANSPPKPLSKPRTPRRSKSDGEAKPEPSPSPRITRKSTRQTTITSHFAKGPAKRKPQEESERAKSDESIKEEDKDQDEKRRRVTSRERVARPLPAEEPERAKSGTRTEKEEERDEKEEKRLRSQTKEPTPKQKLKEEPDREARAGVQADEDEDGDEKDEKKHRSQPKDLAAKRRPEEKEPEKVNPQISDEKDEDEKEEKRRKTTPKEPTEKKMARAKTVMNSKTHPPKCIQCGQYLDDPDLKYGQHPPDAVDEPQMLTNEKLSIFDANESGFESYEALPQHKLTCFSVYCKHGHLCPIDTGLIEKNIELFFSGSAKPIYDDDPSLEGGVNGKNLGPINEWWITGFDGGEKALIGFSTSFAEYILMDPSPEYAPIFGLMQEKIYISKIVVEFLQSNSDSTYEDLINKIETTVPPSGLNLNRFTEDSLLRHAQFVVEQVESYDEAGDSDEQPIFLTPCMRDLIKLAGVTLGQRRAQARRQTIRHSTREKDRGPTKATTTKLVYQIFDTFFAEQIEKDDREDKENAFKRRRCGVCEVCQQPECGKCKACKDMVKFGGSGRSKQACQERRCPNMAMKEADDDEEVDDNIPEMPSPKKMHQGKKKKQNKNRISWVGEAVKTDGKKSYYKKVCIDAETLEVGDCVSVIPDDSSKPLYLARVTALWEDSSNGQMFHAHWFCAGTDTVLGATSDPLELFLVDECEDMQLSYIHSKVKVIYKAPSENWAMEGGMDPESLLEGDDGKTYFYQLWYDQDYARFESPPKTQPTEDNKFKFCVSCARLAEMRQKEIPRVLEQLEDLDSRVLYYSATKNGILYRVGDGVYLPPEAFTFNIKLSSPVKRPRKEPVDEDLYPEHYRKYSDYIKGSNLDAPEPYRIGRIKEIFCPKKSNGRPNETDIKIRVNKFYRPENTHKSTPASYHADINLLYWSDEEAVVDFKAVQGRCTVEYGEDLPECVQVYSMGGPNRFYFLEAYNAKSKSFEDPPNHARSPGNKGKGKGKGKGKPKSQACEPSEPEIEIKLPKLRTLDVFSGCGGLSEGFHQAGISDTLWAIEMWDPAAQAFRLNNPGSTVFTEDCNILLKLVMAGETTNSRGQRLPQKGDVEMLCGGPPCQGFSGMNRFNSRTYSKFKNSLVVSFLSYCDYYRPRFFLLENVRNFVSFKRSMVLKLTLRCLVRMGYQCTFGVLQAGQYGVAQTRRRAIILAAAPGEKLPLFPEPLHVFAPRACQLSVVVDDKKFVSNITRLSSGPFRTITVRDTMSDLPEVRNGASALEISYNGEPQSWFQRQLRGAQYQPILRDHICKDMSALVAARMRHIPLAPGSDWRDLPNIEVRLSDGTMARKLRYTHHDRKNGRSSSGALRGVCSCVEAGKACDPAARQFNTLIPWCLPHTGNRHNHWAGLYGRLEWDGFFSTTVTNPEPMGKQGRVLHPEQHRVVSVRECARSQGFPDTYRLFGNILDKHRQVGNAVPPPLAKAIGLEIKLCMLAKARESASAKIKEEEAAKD

SMILES | IC50 [1] | further results
O=C(O)[C@H](Cc1c[nH]c2ccccc12)N1C(=O)c2ccccc2C1=O |  | IC50 ([1]; read-out: IC50): 900 nM
CN(Cc1ccc2cc[nH]c2c1)C(=O)CCc1cccc(-c2nc3ccccc3[nH]2)c1 | Not Active | 
CN(Cc1ccc2cc[nH]c2c1)C(=O)CCc1cccc(-c2cc3ccccc3[nH]2)c1 | Not Active | 
CN(Cc1ccc2[nH]ccc2c1)C(=O)CCc1cccc(-c2nc3ccccc3[nH]2)c1 | Not Active | 
O=C(CCc1cccc(-c2nc3ccccc3[nH]2)c1)NCc1ccc2[nH]ncc2c1 | Not Active | 
CN(Cc1ccc2cn[nH]c2c1)C(=O)CCc1cccc(-c2cc3ccccc3[nH]2)c1 | Not Active | 
CN(Cc1ccc2[nH]ccc2c1)C(=O)CCc1cccc(-c2cc3ccccc3[nH]2)c1 | Not Active | 
O=C(CSc1ncnc2sccc12)N1CCN(Cc2cc(=O)n3ccsc3n2)CC1 |  | IC50 [2]: 27200 nM
CN(Cc1ccc2cn[nH]c2c1)C(=O)CCc1cccc(-c2nc3ccccc3[nH]2)c1 | Not Active | 
Cc1ccc2c(=O)c(-c3nc(-c4cccc(F)c4)no3)cn(CC(=O)Nc3ccc4c(c3)OCO4)c2n1 |  | IC50 [2]: 28500 nM
C[C@@H]1O[C@@H](CC(=O)O)CC2=C1C(=O)c1c(O)cccc1C2=O [NANAFROCIN] |  | IC50 ([1]; read-out: IC50): 1500 nM; IC50 [3]: 730 nM; CC50 [4]: 700 nM; LD50 [5]: 28 mg/kg
